# From ChEMBL document CHEMBL1126942, “Synthesis and antibacterial activity of a new series of tetracyclic pyridone carboxylic acids” (J Med Chem, 1993)
# Experiments:
# Format in all cases: functional
# Escherichia coli [1] = assay: Tested for inhibitory activity against DNA gyrase supercoiling in Escherichia coli (KL-16)
# [2] = test system: Staphylococcus epidermidis; assay: Tested in vitro for antibacterial activity against Staphylococcus epidermidis (IAM 1296)
# Pseudomonas aeruginosa [3] = assay: Tested in vitro for antibacterial activity against Pseudomonas aeruginosa (IFO 3445)
# Staphylococcus aureus [4] = assay: Tested in vitro for antibacterial activity against Staphylococcus aureus (IID 803)
# Klebsiella pneumoniae = assay: Tested in vitro for antibacterial activity against Klebsiella pneumoniae (B54)
# Pseudomonas aeruginosa [5] = assay: Tested in vitro for antibacterial activity against Pseudomonas aeruginosa (E-2)
# Escherichia coli [6] = assay: Tested in vitro for antibacterial activity against Escherichia coli (KC-14)
# Enterococcus faecalis = assay: Tested in vitro for antibacterial activity agains Enterococcus faecalis (IID 682)
# Staphylococcus aureus [7] = assay: Tested in vitro for antibacterial activity against Staphylococcus aureus (FDA 209P JC-1)
# Escherichia coli [8] = assay: Tested in vitro for antibacterial activity agains Escherichia coli (NIHJ JC-2)
Compound,IC50 (Escherichia coli [1]),MIC [2],MIC (Pseudomonas aeruginosa [3]),MIC (Staphylococcus aureus [4]),MIC (Klebsiella pneumoniae),MIC (Pseudomonas aeruginosa [5]),MIC (Escherichia coli [6]),MIC (Enterococcus faecalis),MIC (Staphylococcus aureus [7]),MIC (Escherichia coli [8])
CN1CCN(c2c(F)cc3c(=O)c(C(=O)O)c4n5c3c2OCC5CS4)CC1.Cl (stereo unspecified),0.33 µg/mL,0.2 µg/mL,1.56 µg/mL,0.1 µg/mL,0.05 µg/mL,1.56 µg/mL,0.025 µg/mL,0.78 µg/mL,0.1 µg/mL,0.05 µg/mL
CN1CCN(c2c(F)cc3c(=O)c(C(=O)O)c4n5c3c2N(C)CC5CS4)CC1.Cl (stereo unspecified),0.53 µg/mL,0.78 µg/mL,6.25 µg/mL,0.39 µg/mL,0.39 µg/mL,6.25 µg/mL,0.78 µg/mL,1.56 µg/mL,0.78 µg/mL,0.78 µg/mL
CN1CCN(c2c(F)cc3c(=O)c(C(=O)O)c4n5c3c2C(=O)CC5CS4)CC1.Cl (stereo unspecified),0.67 µg/mL,3.13 µg/mL,6.25 µg/mL,0.78 µg/mL,0.78 µg/mL,3.13 µg/mL,0.39 µg/mL,3.13 µg/mL,0.78 µg/mL,0.78 µg/mL
CC1COc2c(N3CCN(C)CC3)c(F)cc3c(=O)c(C(=O)O)cn1c23 (stereo unspecified) [OFLOXACIN],0.53 µg/mL,,,,,,,,,
CN1CCN(c2c(F)cc3c(=O)c(C(=O)O)c4n5c3c2SCC5CO4)CC1.Cl (stereo unspecified),2.61 µg/mL,6.25 µg/mL,50 µg/mL,3.13 µg/mL,1.56 µg/mL,60 µg/mL,1.56 µg/mL,6.25 µg/mL,1.56 µg/mL,1.56 µg/mL
